Key:
spleen cells [1] = assay: Plaque Forming Cell Assay (inhibition rate of the antibody production); format: cell-based, Balb/c strain mice; conditions: Mus musculus, read-out: Inhibition rate (antibody production, PFC); for inhibition at 10 µM: Concentration 10^-5 M; for inhibition at 0.1 µM: Concentration 10^-7 M; for inhibition at 0.01 µM: Concentration 10^-8 M
spleen cells [2] = assay: as above; format: cell-based, Balb/c strain mice; conditions: Mus musculus; Concentration 10^-6 M; read-out: Inhibition rate (antibody production, PFC)
Description: Plaque Forming Cell Assay
The plaque forming cell assay was carried out by the following manner with reference to the method of Jerne et al. [Science, 140, 405 (1963)] and the method of Yamamoto et al. [Drugs Experimental Clinical Research, III(1), 5 (1982)].
Male Balb/c strain mice (7-week-old) (Charles River Co.) were sensitized with 1×10^8 sheep erythrocytes (product of Biotest Research Institute) administered via the caudal vein, and the spleens were extirpated 6 or 7 days after the sensitization. The extirpated spleens were immersed in Hanks' solution (Nissui Seiyaku) to make a cell suspension, which was then filtered, followed by centrifugal separation at 1200 rpm for 5 minutes. After centrifugal separation, the supernatant was discarded and the precipitate was treated with Tris.NH4 Cl solution to remove the erythrocytes, and then washed three times with Hanks' solution. After discarding the supernatant, the cells were suspended in an RPMI-1640 medium (Nissui Seiyaku) containing 10% bovine fetal serum (Gibco Co.), 50 μg/ml of streptomycin (Meiji Seika), […] of penicillin (Meiji Seika) and 2-mercaptoethanol (5×10^-5 M). In each well of a micro culture plate (NUNK Co., Ltd., 24 wells) were put 2 ml of the mixture of the cell suspension containing 1×10^7 of spleen cells, 5×10^6 sheep erythrocites and a test compound solution (10^-6 M) obtained by diluting the test compound dissolved in dimethylsulfoxide (10^-2 M) with the above mentioned RPMI-1640, and the cells were cultured at 37° C. for 5 days.
After the completion of the culturing, the cells were subjected to centrifugal separation at 2000 rpm for 5 minutes, and the resulting supernatant was removed. The precipitate was suspended in 1 ml of Hanks' solution, again subjected to centrifugal separation, suspended in 1 ml of Hanks' solution, and then, 50 μl of the suspension and 50 μl of sheep erythrocytes were added to 400 μl of 0.25% agarose/Hanks' solution heated to 50° C. in advance, and the mixture was scattered on a glass slide, placed on a plaque assay plate, and together with guinea pig complement (Cedarlene Institute) diluted 40-fold with a phosphate buffer solution, incubated at 37° C. for 1 to 2 hours. The number of the appearing direct plaque cells (direct PFC count) in suspension was counted.
The inhibition rate of the antibody production of the test compound was determined by the following equation. [formula]
The compound used for comparison was 5,6-dihydro-9-fluoro-3-phenylbenz[c]acridine-7-carboxylic acid [Japanese Published Unexamined Patent Application No. 233661/90, hereinafter referred to as Compound (A)] represented by formula (A). [drawing 62]
PFC count in Control means PFC count in the absence of the test compound (dimethylsulfoxide alone).

dd mice = assay: Acute toxicity; format: in vivo; conditions: mortality after 7 days
Description: The test compound was administered to dd mice having a weight of 20 to 25 g per os (p.o.) and intraperitoneally (i.p.). MLD (minimum lethal dose) was evaluated by measuring the mortality after 7 days from the day of administration.

## O=C(O)c1c2c(nc3ccc(F)cc13)-c1ccc(-c3ccc(F)cc3F)cc1CC2 [Compound 2, 3-(2,4-Difluorophenyl)-5,6-dihydro-9-fluorobenz [c]acridine-7-carboxylic acid]
Spleen cells [1]
  inhibition at 10 µM: 98%
  inhibition at 0.1 µM: 86.7%
Spleen cells [2]
  inhibition at 1 µM: 96.3%

## O=C(O)c1c2c(nc3ccc(F)cc13)-c1ccc(-c3cccs3)cc1CC2 [Compound 4, 5,6-Dihydro-9-fluoro-3-(2-thienyl)benz[c]acridine-7-carboxylic acid]
Spleen cells [1]
  inhibition at 10 µM: 99.8%
  inhibition at 0.1 µM: 88.4%
Dd mice; i.p.
  MLD (minimum lethal dose): > 100
Dd mice; p.o.
  MLD (minimum lethal dose): > 300
Spleen cells [2]
  inhibition at 1 µM: 99.2%

## O=C(O)c1c2c(nc3ccc(F)cc13)-c1cc(F)c(-c3ccccc3)cc1CCC2 [Compound 28, 2,10-Difluoro-6,7-dihydro-3-phenyl-5H-benzo[6,7]cyclohepta[1,2-b]quinoline-8-carboxylic acid]
Spleen cells [1]
  inhibition at 0.1 µM: 90.1%
  inhibition at 0.01 µM: 73.6%
Dd mice; i.p.
  MLD (minimum lethal dose): > 100
Dd mice; p.o.
  MLD (minimum lethal dose): > 100
Spleen cells [2]
  inhibition at 1 µM: 93.6%

## O=C(O)c1c2c(nc3ccc(F)cc13)-c1ccc(-c3ccccc3)cc1CC2 [Compound A1, 5,6-dihydro-9-fluoro-3-phenylbenz[c]acridine-7-carboxylic acid, reference compound]
Spleen cells [1]
  inhibition at 10 µM: 78.6%
Spleen cells [2]
  inhibition at 1 µM: 45.9%

## O=C(O)c1c2c(nc3ccc(F)cc13)-c1ccc(-c3c(F)cccc3F)cc1CC2 [Compound 3, 3-(2,6-Difluorophenyl)-5,6-dihydro-9-fluorobenz[c]acridine-7-carboxylic acid]
Spleen cells [1]
  inhibition at 10 µM: 99.7%
  inhibition at 0.1 µM: 68.9%
Dd mice; i.p.
  MLD (minimum lethal dose): > 100
Dd mice; p.o.
  MLD (minimum lethal dose): > 300
Spleen cells [2]
  inhibition at 1 µM: 99.4%

## O=C(O)c1c2c(nc3ccc(F)cc13)-c1cc(F)c(-c3ccccc3)cc1CC2 [Compound 16, 2,9-Difluoro-5,6-dihydro-3-phenylbenz[c]acridine-7-carboxylic acid]
Spleen cells [1]
  inhibition at 0.1 µM: 88.5%
  inhibition at 0.01 µM: 56.8%
Spleen cells [2]
  inhibition at 1 µM: 94.1%

## O=C(O)c1c2c(nc3ccc(F)cc13)-c1ccc(-c3ccccc3)cc1CCC2 [Compound 46, 6,7-Dihydro-10-fluoro-3-phenyl-5H-benzo[6,7]cyclohepta[1,2-b]quinoline-8-carboxylic acid]
Spleen cells [1]
  inhibition at 10 µM: 94.9%
  inhibition at 0.1 µM: 81.4%
Spleen cells [2]
  inhibition at 1 µM: 84.8%

## O=C(O)c1c2c(nc3ccc(F)cc13)-c1cc(F)c(-c3ccccc3F)cc1CC2 [Compound 17, 2,9-Difluoro-5,6-dihydro-3-(2-fluorophenyl)benz[c]acridine-7-carboxylic acid]
Spleen cells [1]
  inhibition at 0.1 µM: 82.5%
  inhibition at 0.01 µM: 59.8%
Spleen cells [2]
  inhibition at 1 µM: 91%

## O=C(O)c1c2c(nc3ccc(F)cc13)-c1ccc(-c3ccc(F)cc3)cc1CC2 [Compound 1, 5,6-Dihydro-9-fluoro-3-(4-fluorophenyl)benz[c]acridine-7-carboxylic acid]
Spleen cells [1]
  inhibition at 10 µM: 98.1%
  inhibition at 0.1 µM: 69.2%
Spleen cells [2]
  inhibition at 1 µM: 93.5%

## O=C(O)c1c2c(nc3ccc(F)cc13)-c1cc(F)c(-c3ccccc3F)cc1CCC2 [Compound 13, 2,10-Difluoro-6,7-dihydro-3-(2-fluorophenyl)-5H-benzo[6,7]cyclohepta[1,2-b]quinoline-8-carboxylic acid]
Spleen cells [1]
  inhibition at 10 µM: 95.2%
  inhibition at 0.1 µM: 82.4%
Spleen cells [2]
  inhibition at 1 µM: 95.7%

Source: patent publication US5646283A, “Tetracyclic compound” (Kyowa Hakko Kogyo Co., Ltd., priority 1993, dated 1997)
